For this test, the target named is IDH1 R132H (Homo sapiens (Human), UniProt O75874, R132H). As to the kind of experiment: Assays for IDH1 R132H Inhibitors (NADPH/aKG, resazurin detection). The class given is biochemical. As to conditions: IDH1 R132H enzyme. Put shortly: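 Mutant enzyme in 150 mM NaCl, 10 mM MgCl2, 20 mM Tris pH 7.5, 0.03% BSA; compound in DMSO added to substrate mix of 8 uM NADPH and 2 mM aKG. Reaction ran 50 min at room temperature, then resazurin detection mix (30 μM) added for 5 min at room temperature.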
IDH1 R132H, sequence (O75874 whole entry R132H): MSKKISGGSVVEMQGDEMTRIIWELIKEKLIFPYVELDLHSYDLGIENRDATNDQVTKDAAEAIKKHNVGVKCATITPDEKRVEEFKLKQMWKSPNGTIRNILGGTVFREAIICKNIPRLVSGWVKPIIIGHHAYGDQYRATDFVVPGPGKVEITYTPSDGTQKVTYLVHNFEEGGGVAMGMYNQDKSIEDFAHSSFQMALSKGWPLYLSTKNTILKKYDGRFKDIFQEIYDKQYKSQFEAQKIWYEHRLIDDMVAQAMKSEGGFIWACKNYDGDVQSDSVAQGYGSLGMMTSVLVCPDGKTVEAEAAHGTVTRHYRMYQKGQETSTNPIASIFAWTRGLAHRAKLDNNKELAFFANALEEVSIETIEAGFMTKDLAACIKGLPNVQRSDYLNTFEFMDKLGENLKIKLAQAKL
A general note: Alamar Blue is a resazurin reagent that responds to reducing activity.

[1] abbreviates: Table 2, read-out: IDHR132H Activity.

Data on 24 compounds can be found in patent US9662327B2 (AGIOS PHARMACEUTICALS, INC, priority 2011, dated 2017).

Read-outs that look alike come from different tables or passages of the source.

As to `C[C@@H]1CN(c2nc(C3CCCCC3)c3c(c2C#N)CCOC3)CCN1C(=O)Cc1ccccn1` [Compound 238, (R)-8-cyclohexyl-6-(3-methyl-4-(2-(pyridin-2-yl)acetyl)piperazin-1-yl)-3,4-dihydro-1H-pyrano[3,4-c]pyridine-5-carbonitrile], under setting [1], the IC50 was in the range of 1 to 10 µM.
Turning to `CCOC(=O)N1CCN(c2nc(C3CCCCC3)c3c(c2C#N)CCOC3)C[C@H]1C` [Compound 358, (R)-ethyl 4-(5-cyano-8-cyclohexyl-3,4-dihydro-1H-pyrano[3,4-c]pyridin-6-yl)-2-methylpiperazine-1-carboxylate], under setting [1], the IC50 lay in the range of 1 to 10 µM.
On the same count and under the same terms, the same measure for `CCOC(=O)C1CN(c2nc(C(C)C)c3c(c2C#N)CC(C)(C)OC3)CCN1C(=O)c1ccco1` (stereo not drawn) [Compound 298, ethyl 4-(5-cyano-8-isopropyl-3,3-dimethyl-3,4-dihydro-1H-pyrano[3,4-c]pyridin-6-yl)-1-(furan-2-carbonyl)piperazine-2-carboxylate]: 1 to 10 µM.
On to `CCCNC(=O)N1CCN(c2nc(C3CC3)c3c(c2C#N)CC(C)(C)OC3)C[C@H]1C(C)C` [Compound 350, (R)-4-(5-cyano-8-cyclopropyl-3,3-dimethyl-3,4-dihydro-1H-pyrano[3,4-c]pyridin-6-yl)-2-isopropyl-N-propylpiperazine-1-carboxamide], for which, under setting [1], the IC50 lay within 1 to 10 µM.
Take `CC(C)c1nc(N2CCN(C(=O)c3ccc(Cl)cc3Cl)CC2)c(C#N)c2c1COCC2` [Compound 106, 6-(4-(2,4-dichlorobenzoyl)piperazin-1-yl)-8-isopropyl-3,4-dihydro-1H-pyrano[3,4-c]pyridine-5-carbonitrile]: under setting [1], the IC50 fell in the range of 1 to 10 µM.
In the case of `CCC1CN(c2nc(C3CCCCC3)c3c(c2C#N)CCOC3)CCN1C(=O)c1ccoc1` (stereo not drawn) [Compound 175, 8-cyclohexyl-6-(3-ethyl-4-(furan-3-carbonyl)piperazin-1-yl)-3,4-dihydro-1H-pyrano[3,4-c]pyridine-5-carbonitrile], the IC50 under setting [1] was 1 to 10 µM.
The same measure, in the same setting: the same measure for `CC(C)[C@@H]1CN(c2nc(C3CC3)c3c(c2C#N)CC(C)(C)OC3)CCN1C(=O)c1ccoc1` [Compound 180, (R)-8-cyclopropyl-6-(4-(furan-3-carbonyl)-3-isopropylpiperazin-1-yl)-3,3-dimethyl-3,4-dihydro-1H-pyrano[3,4-c]pyridine-5-carbonitrile]: under 0.5 µM.
For `C[C@@H]1CN(c2nc(C3CCCCC3)c3c(c2C#N)CCOC3)CCN1C(=O)Cc1cccnc1` [Compound 260, (R)-8-cyclohexyl-6-(3-methyl-4-(2-(pyridin-3-yl)acetyl)piperazin-1-yl)-3,4-dihydro-1H-pyrano[3,4-c]pyridine-5-carbonitrile], the IC50 under setting [1] fell in the range of 1 to 10 µM.
For `COC(=O)CN1CCN(c2nc(C3CCCCC3)c3c(c2C#N)CCOC3)C[C@H]1C` [Compound 342, (R)-methyl 2-(4-(5-cyano-8-cyclohexyl-3,4-dihydro-1H-pyrano[3,4-c]pyridin-6-yl)-2-methylpiperazin-1-yl)acetate], the IC50 under setting [1] lay in the range of 1 to 10 µM.
Same read-out and setting: the same measure for `CC(C)[C@@H]1CN(c2nc(C3CC3)c3c(c2C#N)CC(C)(C)OC3)CCN1C(=O)Cc1cccs1` [Compound 194]: under 0.5 µM; for `CC(C)[C@@H]1CN(c2nc(C3CC3)c3c(c2C#N)CC(C)(C)OC3)CCN1C(=O)C1CC1` [Compound 376, (R)-6-(4-(cyclopropanecarbonyl)-3-isopropylpiperazin-1-yl)-8-cyclopropyl-3,3-dimethyl-3,4-dihydro-1H-pyrano[3,4-c]pyridine-5-carbonitrile]: under 0.5 µM; for `CC(C)[C@@H]1CN(c2nc(C3CC3)c3c(c2C#N)CC(C)(C)OC3)CCN1S(=O)(=O)c1ccc(Cl)s1` [Compound 285, (R)-6-(4-(5-chlorothiophen-2-ylsulfonyl)-3-isopropylpiperazin-1-yl)-8-cyclopropyl-3,3-dimethyl-3,4-dihydro-1H-pyrano[3,4-c]pyridine-5-carbonitrile]: 1 to 10 µM.
As for `C=CS(=O)(=O)N1CCc2c(C#N)c(N3CCN(C)CC3)nc(C3CC3)c2C1` [Compound 503], the IC50 (Table 3, read-out: R132H IC50) was in the range of 0.5 to 1 µM.
Consider `CC1CN(c2nc(C3CCCCC3)c3c(c2C#N)CC(C)(C)OC3)CCN1C(=O)c1ccoc1` (stereo not drawn) [Compound 169, 8-cyclohexyl-6-(4-(furan-3-carbonyl)-3-methylpiperazin-1-yl)-3,3-dimethyl-3,4-dihydro-1H-pyrano[3,4-c]pyridine-5-carbonitrile], for which, under setting [1], the IC50 lay in the range of 1 to 10 µM.
The same measure, in the same setting: the same measure for `CC(C)c1nc(N2CCN(S(=O)(=O)c3cccs3)CC2)c(C#N)c2c1COCC2` [Compound 101]: 1 to 10 µM; for `COC(=O)C1CN(c2nc(C3CC3)c3c(c2C#N)CC(C)(C)OC3)CCN1C(=O)c1ccoc1C` (stereo not drawn) [Compound 394, methyl 4-(5-cyano-8-cyclopropyl-3,3-dimethyl-3,4-dihydro-1H-pyrano[3,4-c]pyridin-6-yl)-1-(2-methylfuran-3-carbonyl)piperazine-2-carboxylate]: 0.5 to 1 µM.
As to `N#Cc1c(N2CCN(C(=O)c3c[nH]c4ccccc34)CC2)nc(C2CCCCC2)c2c1CCOC2` [Compound 118, 6-(4-(1H-indole-3-carbonyl)piperazin-1-yl)-8-cyclohexyl-3,4-dihydro-1H-pyrano[3,4-c]pyridine-5-carbonitrile], under setting [1], the IC50 lay within 1 to 10 µM.
Same read-out and setting: the same measure for `COCC1CN(c2nc(C3CC3)c3c(c2C#N)CC(C)(C)OC3)CCN1C(=O)c1ccoc1` (stereo not drawn) [Compound 402, 8-cyclopropyl-6-(4-(furan-3-carbonyl)-3-(methoxymethyl)piperazin-1-yl)-3,3-dimethyl-3,4-dihydro-1H-pyrano[3,4-c]pyridine-5-carbonitrile]: 1 to 10 µM.
Same read-out and setting: the same measure for `COc1ccc(OC(=O)N2CCN(c3nc(C(C)C)c4c(c3C#N)CCOC4)CC2)cc1` [Compound 103, 4-methoxyphenyl 4-(5-cyano-8-isopropyl-3,4-dihydro-1H-pyrano[3,4-c]pyridin-6-yl)piperazine-1-carboxylate]: 1 to 10 µM; for `C[C@H]1CN(C(=O)c2ccco2)CCN1c1nc(C2CCCCC2)c2c(c1C#N)CCOC2` [Compound 201, (S)-8-cyclohexyl-6-(4-(furan-2-carbonyl)-2-methylpiperazin-1-yl)-3,4-dihydro-1H-pyrano[3,4-c]pyridine-5-carbonitrile]: 1 to 10 µM; for `CCCOC(=O)N1CCN(c2nc(C(C)C)c3c(c2C#N)CC(C)(C)OC3)CC1C(=O)OCC` (stereo not drawn) [Compound 364, 2-ethyl 1-propyl 4-(5-cyano-8-isopropyl-3,3-dimethyl-3,4-dihydro-1H-pyrano[3,4-c]pyridin-6-yl)piperazine-1,2-dicarboxylate]: 1 to 10 µM.
Same read-out and setting: the same measure for `Cc1ccccc1NC(=O)N1CCN(c2nc(C3CCCCC3)c3c(c2C#N)CCOC3)C[C@H]1C` [Compound 279, (R)-4-(5-cyano-8-cyclohexyl-3,4-dihydro-1H-pyrano[3,4-c]pyridin-6-yl)-2-methyl-N-o-tolylpiperazine-1-carboxamide]: 1 to 10 µM; for `CC1(C)Cc2c(C#N)c(N3CCN(C(=O)c4ccco4)[C@@H](c4ccccc4)C3)nc(C3CC3)c2CO1` [Compound 273]: 0.5 to 1 µM; for `CCCOC(=O)N1CCN(c2nc(C3CCCCC3)c3c(c2C#N)CCOC3)C[C@H]1C` [Compound 359, (R)-propyl 4-(5-cyano-8-cyclohexyl-3,4-dihydro-1H-pyrano[3,4-c]pyridin-6-yl)-2-methylpiperazine-1-carboxylate]: 1 to 10 µM.
